pIC50: −log10 of the molar value.

We go through 18 compounds from ChEMBL document CHEMBL1134057, “Synthesis of polyamine derivatives having non-hypotensive Ca2 +-permeable AMPA receptor antagonist activity” (Bioorg Med Chem Lett, 2001).

In assay [1] the target is Glutamate receptor ionotropic, AMPA (Rattus norvegicus, UniProt P19490+P19491+P19492+P19493).
For assay [2], the species on record is Rattus norvegicus. Particulars: dose 3 mg/kg; route intravenous.
Description: Change in systolic blood pressure(SBP) after intravenous administration of 3 mg/kg in rats compared with SBP before dosing
Assay [3] deals with Glutamate receptor ionotropic, AMPA (Rattus norvegicus) (UniProt P19491+P19492+P19493+P19490). Kind of assay: Antagonist activity for [Ca2+] permeable Ionotropic glutamate receptor AMPA expressed in Xenopus oocytes by injection of rat brain mRNA at 1 uM. The format is functional, cell-based. The settings on record: Oocyte.

The pIC50 is the negative decadic logarithm of the IC50, by convention in mol/L. Read a low pIC50 as a large IC50. In assay [1], `O=C(Cc1cccc2ccccc12)N1CCC(CNCCCCNCC2CCNCC2)CC1` had a pIC50 of 5.89. The “Delta SBP” value in assay [2] was -120 mmHg.

On to `NCCCNCCCCNCC1CCN(C(=O)Cc2cccc3ccccc23)CC1`, for which the pIC50 in assay [1] is 6.49. For the same compound, the “Delta SBP” value in assay [2] is listed as -35 mmHg.

In assay [1], `CN1CCC(CNCCCCNCC2CCN(C(=O)Cc3cccc4ccccc34)CC2)CC1` showed a pIC50 of 6.24. Moreover, in assay [2], the “Delta SBP” value was -50 mmHg.

Turning to `O=C(Cc1cccc2ccccc12)NCCCCCC(=O)N1CCC(CNCCCCNCC2CCNCC2)CC1`, the pIC50 in assay [1] is 6.38. Further, in assay [2], the “Delta SBP” value was -40 mmHg.

The term inhibition denotes the percentage by which the read-out fell short of the control. A high value points to a strong effect. Consider `O=C(Cc1cccc2ccccc12)N1CCC(CNCCCCNCCN2CCOCC2)CC1`, for which the inhibition in assay [3] amounted to 18%. Also, the “Delta SBP” value in assay [2] was 0 mmHg.

Consider `CN1CCCC1CCNCCCCNCC1CCN(C(=O)Cc2cccc3ccccc23)CC1` (stereo not given), for which, in assay [1], the pIC50 was 6.11. In addition, the “Delta SBP” value in assay [2] is on record as -55 mmHg.

In assay [1], `O=C(Cc1cccc2ccccc12)N1CCC(CNCCCCNCCCn2ccnc2)CC1` gave a pIC50 of 6.59. For the same compound, the “Delta SBP” value in assay [2] is reported as -25 mmHg.

`O=C(Cc1cccc2ccccc12)N1CCC(CNCCCCNCC2CCCCN2)CC1` (stereo not given): the pIC50 in assay [1] is 5.96. For the same compound, the “Delta SBP” value in assay [2] is 0 mmHg.

In assay [1], `O=C(Cc1cccc2ccccc12)N1CCC(CNCCCCNCC2CCN(c3ccncc3)CC2)CC1` gave a pIC50 of 6.77. Also, the “Delta SBP” value in assay [2] is listed as -43 mmHg.

With `O=C(Cc1cccc2ccccc12)N1CCC(CNCCCCNCC2CCCNC2)CC1` (stereo not given), in assay [1], the pIC50 was 6.09. Further, the “Delta SBP” value in assay [2] is -58 mmHg.

In turn, `NC(=O)C[C@@H](NC(=O)Cc1cccc2ccccc12)C(=O)N1CCC(CNCCCCNCC2CCNCC2)CC1` had a pIC50 in assay [1] of 6.57. In addition, in assay [2], the “Delta SBP” value was -75 mmHg.

In assay [1], `NCCNCCCCNCC1CCN(C(=O)Cc2cccc3ccccc23)CC1` showed a pIC50 of 6.48. The “Delta SBP” value in assay [2] is listed as -50 mmHg.

In the case of `c1ccc2c(CCN3CCC(CNCCCCNCC4CCNCC4)CC3)cccc2c1`, in assay [3], the inhibition worked out at 28%.

Regarding `O=C(Cc1cccc2ccccc12)N1CCC(CNCCCCNCCN2CCCCC2)CC1`, the pIC50 in assay [1] was 6.72. Further, the “Delta SBP” value in assay [2] is 5 mmHg.

As to `O=C(Cc1cccc2ccccc12)NCC(=O)N1CCC(CNCCCCNCC2CCNCC2)CC1`, the pIC50 in assay [1] was 6.31. In addition, in assay [2], the “Delta SBP” value is -50 mmHg.

`O=C(Cc1cccc2ccccc12)N1CCC(CNCCCCNCC2CCCN2)CC1` (stereo not given) showed a pIC50 in assay [1] of 6.14. Also, the “Delta SBP” value in assay [2] came out at 0 mmHg.

In assay [3], `CN1CCCC1CNCCCCNCC1CCN(C(=O)Cc2cccc3ccccc23)CC1` (stereo not given) returned an inhibition of 41%. Also, the “Delta SBP” value in assay [2] came to 13 mmHg.

`CN1CCCCC1CNCCCCNCC1CCN(C(=O)Cc2cccc3ccccc23)CC1` (stereo not given): the inhibition in assay [3] was 27%. In addition, in assay [2], the “Delta SBP” value is given as 11 mmHg.
